Assays:
[1] = target: T1, Brd4 bromodomain 1 (Homo sapiens, UniProt O60885); experiment: Inhibition of tetra-acetylated histone H4 binding to BET bromodomains (TR-FRET); set-up: key: Active: Compounds with an IC50 value less than 30 μM were deemed to be active.; Not Active: Compounds with an IC50 value less than 30 μM were deemed to be active; conditions: first bromodomain of Brd4, tetra-acetylated histone H4 peptide
T1 construct: made in house; host or cells: E. coli BL21(DE3)
Procedure, shortened: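 TR-FRET with N-terminally His-tagged bromodomains (200 nM, E. coli-expressed, Ni affinity and SEC-purified) and biotinylated tetra-acetylated histone H4 peptide (25–50 nM), detected with Eu-cryptate streptavidin and XL665 anti-His antibody. Buffer 30 mM HEPES pH 7.4, 320 mM KF, 0.08% BSA, 0.2% DMSO; 2 h RT. IC50 from decrease in 665/620 nm ratio.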

[2] = system: c-myc; experiment: Inhibition of c-myc expression in cancer cell lines (mRNA, real-time PCR); type: cell-based; set-up: key: Active: Compounds with an IC50 value less than 30 μM were deemed to be active; conditions: Human AML MV4-11 cells, 3 hours
Procedure, shortened: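 MV4-11 cells (2.5×10^4) exposed to compound or 0.1% DMSO for 3 h at 37° C, then lysed for mRNA isolation. c-myc and cyclophilin cDNAs co-amplified by duplex RT real-time PCR. IC50 from dose-response curve.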

[3] = system: Human AML MV-4-11 cells; experiment: Inhibition of cell proliferation in cancer cell lines (CellTiter Aqueous One); type: cell-based; set-up: key: Active: Compounds with an IC50 value less than 30 μM were deemed to be active.; Not Active: Compounds with an IC50 value less than 30 μM were deemed to be active; conditions: 72 hours
Procedure, shortened: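 Exponentially growing MV-4-11 cells were treated immediately with two-fold compound dilutions from 30 µM to 0.2 µM in triplicate for 72 h at 37 °C. Viability was read by MTS (CellTiter Aqueous One) absorbance at 490 nm after 3-4 h; % proliferation vs DMSO gave IC50.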

[4] = system: hIL-6 mRNA; experiment: Inhibition of hIL-6 mRNA transcription in LPS-stimulated U937 macrophages; type: cell-based, human; set-up: key: Active: Compounds with an IC50 value less than 30 μM are deemed to be active; conditions: U937 differentiated into macrophages, 1 h pretreatment, lipopolysaccharide 3 h
Procedure, shortened: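 U937 cells differentiated 3 days with 60 ng/mL PMA, pretreated 1 h with compound, then stimulated with […] E. coli LPS for 3 h at 37° C. hIL-6 mRNA quantified by one-step real-time RT-PCR, Ct normalised to internal control and expressed as fold induction relative to control.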

[5] = system: hApoA-1 mRNA; experiment: Up-regulation of hApoA-1 mRNA transcription in Huh7 cells; type: cell-based, human; set-up: key: Active: Compounds with an EC170 value less than 30 μM are deemed to be active.; Not Active: Compounds with an EC170 value less than 30 μM are deemed to be active; conditions: 48 hrs treatment, ApoA-I mRNA
Description: In this example, ApoA-I mRNA in tissue culture cells was quantitated to measure the transcriptional up-regulation of ApoA-I when treated with a compound of the present disclosure.
Huh7 cells ([…] per well) were plated in a 96-well plate using 100 μL DMEM per well, (Gibco DMEM supplemented with penicillin/streptomycin and 10% FBS), 24 h before the addition of the compound of interest. After 48 hrs treatment, the spent media was removed from the Huh-7 cells and placed on ice (for immediate use) or at −80° C. (for future use) with the “LDH cytotoxicity assay Kit II” from Abcam. The cells remaining in the plate were rinsed with 100 μL PBS.
Then 85 μL of cell lysis solution was added to each well and incubated for 5-10 minutes at room temperature, to allow for complete cell lysis and detachment. mRNA was then prepared using the “mRNA Catcher PLUS plate” from Life Technologies, according to the protocol supplied. After the last wash, as much wash buffer as possible was aspirated without allowing the wells to dry. Elution Buffer (E3, 80 μL) was then added to each well. mRNA was then eluted by incubating the mRNA Catcher PLUS plate with Elution Buffer for 5 minutes at 68° C., and then 1 minute at 4° C. Catcher plates with mRNA eluted were kept on ice for use or stored at −80° C.
The eluted mRNA isolated was then used in a one-step real-time PCR reaction, using components of the Ultra Sense Kit together with Life Technologies primer-probe mixes. Real-time PCR data was analyzed, using the Ct values, to determine the fold induction of each unknown sample, relative to the control (that is, relative to the control for each independent DMSO concentration).
Compounds with an EC170 value less than 30 μM are deemed to be active.

Row | Compound | FRET activity (IC50 < 30 μM) [1] | c-myc activity (IC50 < 30 μM) [2] | cell proliferation activity (IC50 < 30 μM) [3] | IL-6 activity (IC50 < 30 μM) [4] | melting point [°C] | ApoA-1 Activity (EC170 < 30 μM) [5]
1 | COc1cc(OC)c2c(=O)[nH]c(-c3ccc(OCCNC(C)C)c(-c4ccc(C(=O)N(C)C)cc4)n3)nc2c1 [Example 26, 4-(6-(5,7-Dimethoxy-4-oxo-3,4-dihydroquinazolin-2-yl)-3-(2-(isopropylamino)ethoxy)pyridin-2-yl)-N,N-dimethylbenzamide] | Active | Active | Active | Active | 214 to 215 | Active
2 | COc1cc(OC)c2c(=O)[nH]c(-c3ccc(OCCO)c(-c4cccc([S+](C)[O-])c4)n3)nc2c1 (stereo not drawn) [Example 37, 2-(5-(2-Hydroxyethoxy)-6-(3-(methylsulfinyl)phenyl)pyridin-2-yl)-5,7-dimethoxyquinazolin-4(3H)-one] | Active | Active | Not Active | Active | 272 to 273 | Active
3 | COc1cc(OC)c2c(=O)[nH]c(-c3ccc(OCCNC(C)C)c(-c4ccc(S(C)(=O)=O)cc4C(F)(F)F)n3)nc2c1 [Example 46, 2-(5-(2-(Isopropylamino)ethoxy)-6-(4-(methylsulfonyl)-2-(trifluoromethyl)phenyl)pyridin-2-yl)-5,7-dimethoxyquinazolin-4(3H)-one] | Active | Active | Active | Active | 199 to 201 | Active
4 | COc1cc(OC)c2c(=O)[nH]c(-c3cccc(-c4ccc([S+](C)[O-])cc4)n3)nc2c1 (stereo not drawn) [Example 49, 5,7-Dimethoxy-2-(6-(4-(methylsulfinyl)phenyl)pyridin-2-yl)quinazolin-4(3H)-one] | Active | Not Active | Active | Active | 281 to 282 | Active
5 | COc1cc(OC)c2c(=O)[nH]c(-c3ccc(OCCN(C(=O)OC(C)(C)C)C(C)C)c(-c4ccc([S+](C)[O-])cc4)n3)nc2c1 (stereo not drawn) [Example 53, tert-Butyl (2-((6-(5,7-dimethoxy-4-oxo-3,4-dihydroquinazolin-2-yl)-2-(4-(methylsulfinyl)phenyl)pyridin-3-yl)oxy)ethyl)(isopropyl)carbamate] | Active | Not Active | Not Active | Not Active | 114 to 116 | Active
6 | COc1cc(OC)c2c(=O)[nH]c(-c3ccc(OCCN4CCCC4)c(-c4ccc([S+](C)[O-])cc4)n3)nc2c1 (stereo not drawn) [Example 55, 5,7-Dimethoxy-2-(6-(4-(methylsulfinyl)phenyl)-5-(2-(pyrrolidin-1-yl)ethoxy)pyridin-2-yl)quinazolin-4(3H)-one] | Active | Not Active | Active | Active | 103 to 105 | Active
7 | COc1ccc2c(=O)[nH]c(-c3ccc(OCCNC(C)C)c(-c4ccc(S(C)(=O)=O)cc4)n3)nc2c1 [Example 67] | Active | Active | Active | Not Active | 204 to 205 | Active

Second part, led by results:

Row | FRET activity (IC50 < 30 μM) [1] | c-myc activity (IC50 < 30 μM) [2] | cell proliferation activity (IC50 < 30 μM) [3] | IL-6 activity (IC50 < 30 μM) [4] | melting point [°C] | Compound | ApoA-1 Activity (EC170 < 30 μM) [5]
8 | Active | Active | Active | Active | 211 to 213 | COc1cc(OC)c2c(=O)[nH]c(-c3ccc(OCCN4CCCC4)c(-c4ccc(S(C)(=O)=O)cc4)n3)nc2c1.Cl [Example 29, 5,7-Dimethoxy-2-(6-(4-(methylsulfonyl)phenyl)-5-(2-(pyrrolidin-1-yl)ethoxy)pyridin-2-yl)quinazolin-4(3H)-one hydrochloride] | Active
9 | Active | Active | Active | Active | 281 to 282 | COc1cc(OC)c2c(=O)[nH]c(-c3ccc(OCCO)c(-c4ccc([S+](C)[O-])cc4)n3)nc2c1 (stereo not drawn) [Example 38, 2-(5-(2-Hydroxyethoxy)-6-(4-(methylsulfinyl)phenyl)pyridin-2-yl)-5,7-dimethoxyquinazolin-4(3H)-one] | Active
10 | Active | Active | Active | Active | 156 to 157 | COc1cc(OC)c2c(=O)[nH]c(-c3ccc(OCCNC(C)C)c(-c4cccc([S+](C)[O-])c4)n3)nc2c1 (stereo not drawn) [Example 40, 2-(5-(2-(Isopropylamino)ethoxy)-6-(3-(methylsulfinyl)phenyl)pyridin-2-yl)-5,7-dimethoxyquinazolin-4(3H)-one] | Active
11 | Active | Active | Active | Active | 202 to 203 | COc1cc(OC)c2c(=O)[nH]c(-c3ccc(OCCNC(C)C)c(-c4ccc(S(C)(=O)=O)cc4C)n3)nc2c1 [Example 45, 2-(5-(2-(Isopropylamino)ethoxy)-6-(2-methyl-4-(methylsulfonyl)phenyl)pyridin-2-yl)-5,7-dimethoxyquinazolin-4(3H)-one] | Active
12 | Active | Active | Not Active | Active | > 300 | COc1cc(OC)c2c(=O)[nH]c(-c3ccc(OC)c(-c4ccc(C(=O)N(C)C)cc4Cl)c3)nc2c1 [Example 59, 2-Chloro-5′-(5,7-dimethoxy-4-oxo-3,4-dihydroquinazolin-2-yl)-2′-methoxy-N,N-dimethyl-[1,1′-biphenyl]-4-carboxamide] | Active
